Test results reported in ChEMBL document CHEMBL1208720, “N-Benzylsalicylthioamides as novel compounds with promising antimycotic activity” (2010).
Converted amounts (≈) assume the structure as drawn.

Assays:
Format in all cases: functional
Candida albicans [1] = assay: Antifungal activity against Candida albicans ATCC 44859 after 24 hrs by broth microdilution assay; details: Candida albicans, ATCC 44859, 24 h
Candida albicans [2] = assay: Antifungal activity against Candida albicans ATCC 44859 after 48 hrs by broth microdilution assay; details: Candida albicans, ATCC 44859, 48 h
Candida tropicalis [3] = assay: Antifungal activity against Candida tropicalis 159 after 24 hrs by broth microdilution assay; details: Candida tropicalis, 159, 24 h
Candida tropicalis [4] = assay: Antifungal activity against Candida tropicalis 159 after 48 hrs by broth microdilution assay; details: Candida tropicalis, 159, 48 h
Pichia kudriavzevii [5] = assay: Antifungal activity against Candida krusei E28 after 24 hrs by broth microdilution assay; details: Pichia kudriavzevii, E28, 24 h
Pichia kudriavzevii [6] = assay: Antifungal activity against Candida krusei E28 after 48 hrs by broth microdilution assay; details: Pichia kudriavzevii, E28, 48 h
Nakaseomyces glabratus [7] = assay: Antifungal activity against Candida glabrata 20/I after 24 hrs by broth microdilution assay; details: Nakaseomyces glabratus, 20/I, 24 h
Nakaseomyces glabratus [8] = assay: Antifungal activity against Candida glabrata 20/I after 48 hrs by broth microdilution assay; details: Nakaseomyces glabratus, 20/I, 48 h
Trichosporon asahii [9] = assay: Antifungal activity against Trichosporon asahii 1188 after 24 hrs by broth microdilution assay; details: Trichosporon asahii, 1188, 24 h
Trichosporon asahii [10] = assay: Antifungal activity against Trichosporon asahii 1188 after 48 hrs by broth microdilution assay; details: Trichosporon asahii, 1188, 48 h
Aspergillus fumigatus [11] = assay: Antifungal activity against Aspergillus fumigatus 231 after 24 hrs by broth microdilution assay; details: Aspergillus fumigatus, 231, 24 h
Aspergillus fumigatus [12] = assay: Antifungal activity against Aspergillus fumigatus 231 after 48 hrs by broth microdilution assay; details: Aspergillus fumigatus, 231, 48 h
Lichtheimia corymbifera [13] = assay: Antifungal activity against Absidia corymbifera 272 after 24 hrs by broth microdilution assay; details: Lichtheimia corymbifera, 272, 24 h
Lichtheimia corymbifera [14] = assay: Antifungal activity against Absidia corymbifera 272 after 48 hrs by broth microdilution assay; details: Lichtheimia corymbifera, 272, 48 h
[15] = tested on: Trichophyton mentagrophytes; assay: Antifungal activity against Trichophyton mentagrophytes 445 after 72 hrs by broth microdilution assay; details: Trichophyton mentagrophytes, 445, 72 h
[16] = tested on: Trichophyton mentagrophytes; assay: Antifungal activity against Trichophyton mentagrophytes 445 after 120 hrs by broth microdilution assay; details: Trichophyton mentagrophytes, 445, 120 h

| Compound | MIC (Candida albicans [1]) [µM] | MIC (Candida albicans [2]) [µM] | MIC (Candida tropicalis [3]) [µM] | MIC (Candida tropicalis [4]) [µM] | MIC (Pichia kudriavzevii [5]) [µM] | MIC (Pichia kudriavzevii [6]) [µM] | MIC (Nakaseomyces glabratus [7]) [µM] | MIC (Nakaseomyces glabratus [8]) [µM] | MIC (Trichosporon asahii [9]) [µM] | MIC (Trichosporon asahii [10]) [µM] | MIC (Aspergillus fumigatus [11]) [µM] | MIC (Aspergillus fumigatus [12]) [µM] | MIC (Lichtheimia corymbifera [13]) [µM] | MIC (Lichtheimia corymbifera [14]) [µM] | MIC [15] [µM] | MIC [16] [µM] |
| --- | --- | --- | --- | --- | --- | --- | --- | --- | --- | --- | --- | --- | --- | --- | --- | --- |
| Oc1ccc(Br)cc1C(=S)NCc1cccc(Br)c1 | 15.6 (≈ 6.27 µg/mL) | 31.2 (≈ 12.5 µg/mL) | 15.6 (≈ 6.27 µg/mL) | 62.5 (≈ 25.1 µg/mL) | 3.9 (≈ 1.56 µg/mL) | 7.81 (≈ 3.13 µg/mL) | 7.81 (≈ 3.13 µg/mL) | 31.2 (≈ 12.5 µg/mL) | 15.6 (≈ 6.27 µg/mL) | 31.2 (≈ 12.5 µg/mL) | 7.81 (≈ 3.13 µg/mL) | 15.6 (≈ 6.27 µg/mL) | 3.9 (≈ 1.56 µg/mL) | 3.9 (≈ 1.56 µg/mL) | 1.95 (≈ 0.782 µg/mL) | 1.95 (≈ 0.782 µg/mL) |
| Oc1ccc(Br)cc1C(=S)NCc1ccc(Cl)c(Cl)c1 | 15.6 (≈ 6.11 µg/mL) | 31.2 (≈ 12.2 µg/mL) | 31.2 (≈ 12.2 µg/mL) | 31.2 (≈ 12.2 µg/mL) | 7.81 (≈ 3.05 µg/mL) | 15.6 (≈ 6.11 µg/mL) | 31.2 (≈ 12.2 µg/mL) | 62.5 (≈ 24.4 µg/mL) | 3.9 (≈ 1.53 µg/mL) | 7.81 (≈ 3.05 µg/mL) | 7.81 (≈ 3.05 µg/mL) | 7.81 (≈ 3.05 µg/mL) | 3.9 (≈ 1.53 µg/mL) | 3.9 (≈ 1.53 µg/mL) | 0.98 (≈ 0.383 µg/mL) | 0.98 (≈ 0.383 µg/mL) |
| Oc1cc(Cl)ccc1C(=S)NCc1ccc(Br)cc1 | 15.6 (≈ 5.57 µg/mL) | 31.2 (≈ 11.1 µg/mL) | 31.2 (≈ 11.1 µg/mL) | 31.2 (≈ 11.1 µg/mL) | 3.9 (≈ 1.39 µg/mL) | 15.6 (≈ 5.57 µg/mL) | 31.2 (≈ 11.1 µg/mL) | 31.2 (≈ 11.1 µg/mL) | 7.81 (≈ 2.79 µg/mL) | 7.81 (≈ 2.79 µg/mL) | 7.81 (≈ 2.79 µg/mL) | 7.81 (≈ 2.79 µg/mL) | 0.98 (≈ 0.35 µg/mL) | 1.95 (≈ 0.696 µg/mL) | 0.98 (≈ 0.35 µg/mL) | 1.95 (≈ 0.696 µg/mL) |
| CC(C)(C)c1ccc(CNC(=S)c2ccccc2O)cc1 | > 500 | > 500 | > 500 | > 500 | > 500 | > 500 | > 500 | > 500 | 250 (≈ 74.9 µg/mL) | 250 (≈ 74.9 µg/mL) | 250 (≈ 74.9 µg/mL) | > 500 | 15.6 (≈ 4.68 µg/mL) | 62.5 (≈ 18.7 µg/mL) | 15.6 (≈ 4.68 µg/mL) | 15.6 (≈ 4.68 µg/mL) |
| Oc1ccc(Cl)cc1C(=S)NCc1ccccc1 | 62.5 (≈ 17.4 µg/mL) | 125 (≈ 34.7 µg/mL) | 62.5 (≈ 17.4 µg/mL) | 125 (≈ 34.7 µg/mL) | 15.6 (≈ 4.34 µg/mL) | 31.2 (≈ 8.68 µg/mL) | 15.6 (≈ 4.34 µg/mL) | 62.5 (≈ 17.4 µg/mL) | 31.2 (≈ 8.68 µg/mL) | 31.2 (≈ 8.68 µg/mL) | 31.2 (≈ 8.68 µg/mL) | 31.2 (≈ 8.68 µg/mL) | 15.6 (≈ 4.34 µg/mL) | 15.6 (≈ 4.34 µg/mL) | 1.95 (≈ 0.542 µg/mL) | 3.9 (≈ 1.08 µg/mL) |

Other lines, results leading:

| MIC (Candida albicans [1]) [µM] | MIC (Candida albicans [2]) [µM] | MIC (Candida tropicalis [3]) [µM] | MIC (Candida tropicalis [4]) [µM] | MIC (Pichia kudriavzevii [5]) [µM] | MIC (Pichia kudriavzevii [6]) [µM] | MIC (Nakaseomyces glabratus [7]) [µM] | MIC (Nakaseomyces glabratus [8]) [µM] | MIC (Trichosporon asahii [9]) [µM] | MIC (Trichosporon asahii [10]) [µM] | MIC (Aspergillus fumigatus [11]) [µM] | MIC (Aspergillus fumigatus [12]) [µM] | MIC (Lichtheimia corymbifera [13]) [µM] | MIC (Lichtheimia corymbifera [14]) [µM] | MIC [15] [µM] | MIC [16] [µM] | Compound |
| --- | --- | --- | --- | --- | --- | --- | --- | --- | --- | --- | --- | --- | --- | --- | --- | --- |
| 125 (≈ 38.5 µg/mL) | 250 (≈ 77 µg/mL) | 125 (≈ 38.5 µg/mL) | 250 (≈ 77 µg/mL) | 125 (≈ 38.5 µg/mL) | 125 (≈ 38.5 µg/mL) | 250 (≈ 77 µg/mL) | 500 (≈ 154 µg/mL) | 31.2 (≈ 9.62 µg/mL) | 62.5 (≈ 19.2 µg/mL) | 62.5 (≈ 19.2 µg/mL) | 125 (≈ 38.5 µg/mL) | 7.81 (≈ 2.4 µg/mL) | 7.81 (≈ 2.4 µg/mL) | 15.6 (≈ 4.81 µg/mL) | 15.6 (≈ 4.81 µg/mL) | COc1ccc(C(=S)NCc2cccc(Cl)c2)c(O)c1 |
| 15.6 (≈ 4.88 µg/mL) | 31.2 (≈ 9.76 µg/mL) | 31.2 (≈ 9.76 µg/mL) | 31.2 (≈ 9.76 µg/mL) | 15.6 (≈ 4.88 µg/mL) | 31.2 (≈ 9.76 µg/mL) | 31.2 (≈ 9.76 µg/mL) | 31.2 (≈ 9.76 µg/mL) | 15.6 (≈ 4.88 µg/mL) | 15.6 (≈ 4.88 µg/mL) | 15.6 (≈ 4.88 µg/mL) | 31.2 (≈ 9.76 µg/mL) | 7.81 (≈ 2.44 µg/mL) | 15.6 (≈ 4.88 µg/mL) | 7.81 (≈ 2.44 µg/mL) | 15.6 (≈ 4.88 µg/mL) | Oc1ccccc1C(=S)NCc1ccc(Cl)c(Cl)c1 |
| 15.6 (≈ 6.27 µg/mL) | 31.2 (≈ 12.5 µg/mL) | 31.2 (≈ 12.5 µg/mL) | 31.2 (≈ 12.5 µg/mL) | 3.9 (≈ 1.56 µg/mL) | 15.6 (≈ 6.27 µg/mL) | 31.2 (≈ 12.5 µg/mL) | 125 (≈ 50.1 µg/mL) | 3.9 (≈ 1.56 µg/mL) | 7.81 (≈ 3.13 µg/mL) | 15.6 (≈ 6.27 µg/mL) | 15.6 (≈ 6.27 µg/mL) | 3.9 (≈ 1.56 µg/mL) | 3.9 (≈ 1.56 µg/mL) | 15.6 (≈ 6.27 µg/mL) | 31.2 (≈ 12.5 µg/mL) | Oc1ccc(Br)cc1C(=S)NCc1ccc(Br)cc1 |
| 31.2 (≈ 9.24 µg/mL) | 125 (≈ 37 µg/mL) | 62.5 (≈ 18.5 µg/mL) | 125 (≈ 37 µg/mL) | 7.81 (≈ 2.31 µg/mL) | 15.6 (≈ 4.62 µg/mL) | 62.5 (≈ 18.5 µg/mL) | 125 (≈ 37 µg/mL) | 7.81 (≈ 2.31 µg/mL) | 15.6 (≈ 4.62 µg/mL) | 31.2 (≈ 9.24 µg/mL) | 15.6 (≈ 4.62 µg/mL) | 15.6 (≈ 4.62 µg/mL) | 15.6 (≈ 4.62 µg/mL) | 15.6 (≈ 4.62 µg/mL) | 15.6 (≈ 4.62 µg/mL) | Oc1ccc(Cl)cc1C(=S)NCc1ccc(F)cc1 |
| 31.2 (≈ 10.8 µg/mL) | 31.2 (≈ 10.8 µg/mL) | 31.2 (≈ 10.8 µg/mL) | 62.5 (≈ 21.7 µg/mL) | 3.9 (≈ 1.35 µg/mL) | 15.6 (≈ 5.41 µg/mL) | 31.2 (≈ 10.8 µg/mL) | 31.2 (≈ 10.8 µg/mL) | 3.9 (≈ 1.35 µg/mL) | 7.81 (≈ 2.71 µg/mL) | 3.9 (≈ 1.35 µg/mL) | 15.6 (≈ 5.41 µg/mL) | 3.9 (≈ 1.35 µg/mL) | 7.81 (≈ 2.71 µg/mL) | 0.98 (≈ 0.34 µg/mL) | 0.98 (≈ 0.34 µg/mL) | Oc1ccc(Cl)cc1C(=S)NCc1ccc(Cl)c(Cl)c1 |
